In general, IC50 refers to the midpoint of a concentration-inhibition curve.

The target in assay [1] is T1, thromboxane synthetase (Homo sapiens, UniProt P24557).
T1 sequence (P24557 1-533): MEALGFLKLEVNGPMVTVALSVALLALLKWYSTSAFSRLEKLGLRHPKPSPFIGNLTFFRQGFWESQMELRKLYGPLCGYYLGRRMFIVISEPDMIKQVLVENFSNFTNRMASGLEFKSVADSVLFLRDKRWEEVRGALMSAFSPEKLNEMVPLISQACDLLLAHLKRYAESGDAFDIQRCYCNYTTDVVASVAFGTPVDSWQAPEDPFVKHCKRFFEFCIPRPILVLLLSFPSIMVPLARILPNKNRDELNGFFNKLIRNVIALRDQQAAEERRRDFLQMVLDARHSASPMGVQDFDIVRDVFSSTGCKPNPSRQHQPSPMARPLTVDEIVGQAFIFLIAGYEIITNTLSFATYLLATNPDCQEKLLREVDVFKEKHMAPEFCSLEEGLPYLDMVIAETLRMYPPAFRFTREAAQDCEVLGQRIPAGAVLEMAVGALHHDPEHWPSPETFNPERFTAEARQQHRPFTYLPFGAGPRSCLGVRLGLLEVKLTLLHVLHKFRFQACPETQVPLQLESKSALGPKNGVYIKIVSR
The assay is described as follows: Test Example 2: Thromboxane synthetase inhibiting activity (human PRP, thrombin, RIA). The class given is cell-based. Here is the method: (§1) A blood sample was collected from human fore arm using a syringe containing 3.8% sodium citrate solution (1/10 volume of the blood to be collected) and centrifuged to obtain platelet rich plasma (PRP; 3 ×10^5 platelets/μ1).
(§2) A 200 μ1 portion of the thus prepared PRP and 23.75 µl of physiological saline were put in a cuvette, the cuvette was set into the aforementioned aggregometer and the contents in the cuvette were incubated at 37° C. for 2 minutes. Thereafter, 1.25 μ1 dimethyl sulfoxide (DMSO) solution of each of the N-(3-pyridylalkyl)sulfonamide derivatives obtained in Examples 1, 3 and 7 was put in the cuvette and incubated for 3 minutes, followed by the addition of 20 U/ml solution of thrombin to cause platelet aggregation. A portion of the supernatant after aggregation reaction was mixed with diethyl ether/methanol/0.2M citric acid (30:4:1 ), and the thus formed thromboxane A2 was extracted and its quantity was analyzed by RIA using a kit of Amersham.

Assay [2] deals with platelet aggregation caused by U-46619. The assay is described as follows: Test Example 1: Platelet aggregation inhibiting activity (human PRP, U-46619). The class given is cell-based. The following applies: for IC50: Platelet, 320 nM U-46619, 37° C., read-out: Inhibitory effect against platelet aggregation caused by U-46619 (IC50); for platelet aggregation inhibiting activity (in words): U-46619. The protocol: as §1
(§3) Platelet aggregation was measured using an aggregometer (Hematracer VI, Niko Bioscience Co., Ltd.) by putting 200 µl of the thus prepared PRP and 23.75 µl of physiological saline in a cuvette, setting the cuvette into the aggregometer and incubating the contents at 37° C. for 2 minutes, adding 1.25 μ1 dimethyl sulfoxide (DMSO) solution of each of the N-(3-pyridylalkyl)sulfonamide derivatives obtained in Examples 1, 3, 4, 6 and 8 and incubating for 3 minutes, and then adding U-46619 (Cayman Chemical Co., Inc.) which is a stable PGG2/ H2 derivative having a strong platelet aggregation causing activity.
In this instance, the term "IC50 "as used herein means concentration of the N-(3-pyridylalkyl)sulfonamide derivative of the present invention required to inhibit 50% of the platelet agglutination when platelet aggregation without introducing the inventive derivative was defined as 100%.

Assay [3] concerns tracheal smooth muscle contraction caused by the U-46619. The assay is described as follows: Test Example 3: Competitive activity against TXA2.PGH2 (tracheal smooth muscle contraction caused by U-46619). In kind it is cell-based, Hartley guinea pig. The following applies: guinea pig trachea. The protocol: In vitro competitive activity (IC50) of the derivative of the present invention against TXA2· PGH2 was measured as follows.
(§4) Sections of tracheae excised from Hartley guinea pig males of 300 to 500 g in weight were suspended with a load of 0.3 g in Tyrode solution (30° C.) contained in a Magnus vessel which was aerated with a mixed gas system of 95% oxygen and 5% carbon dioxide. After about 1 hour of stabilization, U-46619 (a TXA2· PGH2 analog, manufactured by Cayman Chemical Co., Inc.) was added to the solution in a concentration of 10^-7 M. Thereafter, effect of the addition of the inventive N-(3-pyridylalkyl)sulfonamide derivative obtained in Example 4 on the tracheal smooth muscle contraction caused by the U-46619 was measured and the IC50 value was calculated.

For assay [4], the target named is T1, thromboxane synthetase. The assay is described as follows: Test Example 7: Thromboxane synthetase inhibiting activity (human PRP, thrombin, RIA). In kind it is cell-based. Here is the method: A blood sample was collected from human fore arm using a syringe containing 3.8% sodium citrate solution (1/10 volume of the blood to be collected) and centrifuged to obtain platelet rich plasma (PRP; 3×10^5 platelets/μl ).
as §2, with “200 μl” for “200 μ1”, “23.75 μl” for “23.75 µl”, “Examples 36, 37, 38” for “Examples 1, 3”, “and 40” for “and 7”, “acid (30:4:1),” for “acid (30:4:1 ),”

The test system of assay [5] is tracheal smooth muscle contraction caused by the U-46619. The experiment in a line: Test Examples 8: Competitive activity against TXA2.PGH2 (tracheal smooth muscle contraction caused by U-46619). The class given is cell-based, Hartley guinea pig. The following applies: guinea pig trachea. Here is the method: In vitro competitive activity (IC50) of the derivative of the present invention against TXA2 ·PGH2 was measured as follows.
as §4, with “TXA2 ·PGH2” for “TXA2· PGH2”, “Inc. )” for “Inc.)”

Assay [6] deals with platelet aggregation caused by U-46619. The assay is described as follows: Test Examples 6: Platelet aggregation inhibiting activity (human PRP, U-46619). The class given is cell-based. Here is the method: A blood sample was collected from human fore arm using a syringe containing 3.8% sodium citrate solution (1/10 volume of the blood to be collected) and centrifuged to obtain platelet rich plasma (PRP; 3×10^5 platelets/μl).
as §3, with “200 μof” for “200 µl of”, “23.75 μl” for “23.75 µl”, “1.25 μl” for “1.25 μ1”, “Examples 35, 36, 37” for “Examples 1, 3, 4, 6”, “and 42” for “and 8”, “stable PGG2 /H2” for “stable PGG2/ H2”
In this instance, the term "IC50 " as used herein means concentration of the N-(3-pyridylalkyl)sulfonamide derivative of the present invention required to inhibit 50% of the platelet aggregation when platelet aggregation without introducing the inventive derivative was defined as 100%.

The mark [7] stands for this setting: 20 U/ml thrombin, RIA, read-out: Inhibition of thromboxane A2 synthesis (IC50).
Setting [8] is: Cavia porcellus, U-46619 10^-7 M, in vitro.

Regarding `CCOC(=O)COc1ccc(C(CNS(=O)(=O)c2ccc(Cl)cc2)c2cccnc2)cc1` (stereo not shown) [Example 4, ethyl 4-[2-(4-chlorobenzenesulfonamido)-1-(3-pyridyl)ethyl]phenyloxyacetate], the values for the IC50 (at thromboxane synthetase [1] (setting [7]); in assay [2]) were 0.033 µM and 51 µM, respectively. For the same molecule, the “platelet aggregation inhibiting activity (in words)” value in assay [2] is listed as “markedly high platelet aggregation inhibiting activity”. Also, the “in vitro competitive activity against TXA2.PGH2 (in words)” value in assay [3] (U-46619) is listed as “excellent in vitro competitive activity”.

In the case of `O=C(O)COc1ccc(C(CNS(=O)(=O)c2ccc(Cl)cc2)c2cccnc2)cc1` (stereo not shown) [Example 5, 4-[2-(4-chlorobenzenesulfonamido)-1-(3-pyridyl)ethyl]phenyloxyacetic acid], the results for the IC50 in assay [2] and in assay [3] (setting [8]) were 16 µM and 6.7 µM, respectively. Also, in assay [2], the “platelet aggregation inhibiting activity (in words)” value is reported as “markedly high platelet aggregation inhibiting activity”.

Consider `O=C(O)COc1ccc(C(CCNS(=O)(=O)c2ccc(Cl)cc2)c2cccnc2)cc1` (stereo not shown) [Example 7, 4-[3-(4-chlorobenzenesulfonamido)-1-(3-pyridyl)propyl]phenyloxyacetic acid], for which, on thromboxane synthetase [1] (thrombin), the “thromboxane synthetase inhibiting activity (in words)” value is reported as “excellent thromboxane synthetase inhibiting activity”. In addition, in assay [2], the IC50 worked out at 30 µM and the “platelet aggregation inhibiting activity (in words)” value is reported as “markedly high platelet aggregation inhibiting activity”.

Consider `CCOC(=O)/C(C)=C/c1ccc(C(CNS(=O)(=O)c2ccc(Cl)cc2)Cc2cccnc2)cc1` (stereo not drawn) [Example 37, ethyl 4-[1-(4-chlorobenzenesulfonamido)-3-(3-pyridyl)-2-propyl]-α-methylcinnamate], for which the IC50 at thromboxane synthetase [4] (setting [7]) stood at 8.9 µM; in assay [5] (setting [8]), 0.088 µM; in assay [6] (Platelet, 320 nM U-46619, 37° C., read-out: Inhibitory effect against platelet aggregation caused by U-46619 (IC50)), 66 µM. Further, on thromboxane synthetase [4] (thrombin), the “thromboxane synthetase inhibiting activity (in words)” value is “excellent thromboxane synthetase inhibiting activity”. Further, the “in vitro competitive activity against TXA2.PGH2 (in words)” value in assay [5] (U-46619) is “excellent in vitro competitive”. Also, the “platelet aggregation inhibiting activity (in words)” value in assay [6] (U-46619) is listed as “markedly high platelet aggregation inhibiting activity”.

The values above are taken from patent US5374641A, “N-(3-pyridylalkyl)sulfonamide compounds which have useful pharmaceutical activity” (Terumo Kabushiki Kaisha, priority 1991, dated 1994).
